Read-outs that look alike come from different tables or passages of the source.
Key:
h P2X3 = molecular target: T1, h P2X3 (Homo sapiens, UniProt P56373); assay: In vitro electrophysiology assay for P2X3 (Sophion Qube automated patch-clamp, α,β-MeATP agonist); assay type: cell-based; conditions: for h P2X3 (pIC50 range of activity): Table 3
T1 sequence (P56373 1-397): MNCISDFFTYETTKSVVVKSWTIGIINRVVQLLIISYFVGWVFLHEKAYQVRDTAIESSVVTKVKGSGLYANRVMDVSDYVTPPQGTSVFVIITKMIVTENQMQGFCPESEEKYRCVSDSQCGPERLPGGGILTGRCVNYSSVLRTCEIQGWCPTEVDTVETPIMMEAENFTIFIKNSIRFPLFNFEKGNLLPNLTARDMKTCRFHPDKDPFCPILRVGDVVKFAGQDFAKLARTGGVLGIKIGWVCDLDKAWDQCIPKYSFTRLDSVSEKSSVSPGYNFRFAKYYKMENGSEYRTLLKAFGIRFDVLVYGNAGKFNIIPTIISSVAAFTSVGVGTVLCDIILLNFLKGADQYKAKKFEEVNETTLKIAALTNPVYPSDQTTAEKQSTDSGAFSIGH
Experimental: Pharmacological Activity of the Compounds of the Invention. In Vitro Electrophysiology Assay for P2X3
Cells expressing P2X3 receptors were grown according to standard practice and maintained at 37° C. in a 5% humidified CO2 atmosphere. The cells were seeded into T175 flask 2 days prior to the day of the assay and dissociated from the flasks using TrypLE when grown to confluence of 80-90%. The dissociated cells were resuspended in serum free media at a cell density of 3×10^6 cells/ml and loaded onto the Sophion Qube automated patch-clamp system. The extracellular assay buffer contained 145 mM NaCl, 4 mM KCl, 2 mM CaCl2, 1 mM MgCl2, 10 mM HEPES, and 10 mM glucose at pH 7.4. The intracellular assay solution contained 140 mM CsF, 10 mM NaCl, 10 mM EGTA, 10 mM HEPES at pH 7.2. Agonist stock solutions were prepared in H2O and diluted in bath solution prior to use. All antagonists were prepared as 10 mM stock solutions in DMSO and diluted in bath solution prior to use. All experiments were performed under the whole-cell patch clamp configuration at room temperature with 384 individual cells being voltage clamped at −60 mV simultaneously on the Sophion Qube instrument. Two baseline responses were established with the application of α,β-MeATP (800 nM), with the subsequent agonist applications being washed out using extracellular assay buffer containing 0.5 U/ml apyrase. Following the second agonist application, antagonist was incubated in the absence of α,β-MeATP for 10 minutes. After antagonist preincubation, 800 nM α,β-MeATP and antagonist were co-administered to determine the inhibitory effect of the antagonist. One concentration of an antagonist was assessed against a single cell, with different concentrations of the antagonist applied to other cells on the 384 recording substrate. The control P2X3 current amplitude was taken from the peak current amplitude from the second agonist response prior to preincubation with antagonist. The peak P2X3 current amplitude in the presence of antagonist was used to calculate the inhibitory effect at each concentration of the antagonist according to the following equation: Percentage inhibition of P2X3=(P2X3 control peak amplitude-P2X3 antagonist peak amplitude)/P2X3 control peak amplitude)*100
Concentration-response curves were constructed from ten different concentrations with each concentration of antagonist tested on at least two individual cells. The concentration of the antagonist to inhibit P2X3 current by 50% (IC50) was determined by fitting the data with the following equation: Y=a+[(b−a)/(1+10^((log c−x)d)]
Where ‘a’ is minimum response, ‘b’ is maximum response, ‘c’ is IC50 and ‘d’ is Hill slope.
The results for individual compounds are provided below in Table 2 and are expressed as range of activity.

h P2X2/3 = molecular target: T2, h P2X2/3 (Homo sapiens, UniProt P56373+Q9UBL9); assay: In vitro electrophysiology assay for P2X2/3 (same protocol, 10 μM ATP agonist); assay type: cell-based; conditions: Table 3; 10 μM ATP as agonist, mean current amplitude seven seconds after agonist; read-out: h P2X2/3 (pIC50 range of activity) (converted)
T2 construct: same protocol as the P2X3 assay
T2 sequence (P56373 1-397): T1 sequence (P56373 1-397)
T2 sequence (Q9UBL9 1-471): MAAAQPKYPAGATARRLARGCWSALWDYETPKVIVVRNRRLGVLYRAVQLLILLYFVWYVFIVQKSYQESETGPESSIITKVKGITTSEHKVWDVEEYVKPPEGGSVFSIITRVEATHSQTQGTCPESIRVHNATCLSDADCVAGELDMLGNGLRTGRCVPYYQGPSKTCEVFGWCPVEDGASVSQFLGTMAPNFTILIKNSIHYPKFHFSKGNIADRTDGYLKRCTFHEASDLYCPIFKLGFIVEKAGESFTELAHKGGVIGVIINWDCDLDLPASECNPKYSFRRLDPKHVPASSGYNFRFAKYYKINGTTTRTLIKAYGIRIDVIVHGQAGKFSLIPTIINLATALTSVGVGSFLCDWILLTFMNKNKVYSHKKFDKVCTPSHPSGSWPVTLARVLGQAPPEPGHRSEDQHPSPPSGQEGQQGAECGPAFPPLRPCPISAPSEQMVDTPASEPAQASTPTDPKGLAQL
Experimental: Cells expressing P2X3 receptors were grown according to standard practice and maintained at 37° C. in a 5% humidified CO2 atmosphere. The cells were seeded into T175 flask 2 days prior to the day of the assay and dissociated from the flasks using TrypLE when grown to confluence of 80-90%. The dissociated cells were resuspended in serum free media at a cell density of 3×10^6 cells/ml and loaded onto the Sophion Qube automated patch-clamp system. The extracellular assay buffer contained 145 mM NaCl, 4 mM KCl, 2 mM CaCl2, 1 mM MgCl2, 10 mM HEPES, and 10 mM glucose at pH 7.4. The intracellular assay solution contained 140 mM CsF, 10 mM NaCl, 10 mM EGTA, 10 mM HEPES at pH 7.2. Agonist stock solutions were prepared in H2O and diluted in bath solution prior to use. All antagonists were prepared as 10 mM stock solutions in DMSO and diluted in bath solution prior to use. […] One concentration of an antagonist was assessed against a single cell, with different concentrations of the antagonist applied to other cells on the 384 recording substrate. […]
The same assay protocol was used for the P2X2/3 assay as the P2X3 assay with two modifications: 1) 10 μM ATP was used as the agonist; and 2) the mean current amplitude was measured seven seconds after the application of agonist.

[1] = Table 2, whole-cell patch clamp, 800 nM α,β-MeATP, 10 min antagonist preincubation, read-out: h P2X3 (pIC50 range of activity) (converted)
[2] = whole-cell patch clamp, 800 nM α,β-MeATP

IC50 (h P2X3; [1])	SMILES	other results
0.316 to 3.16 µM	Cc1ccc(CNc2nnc(C3CCOCC3)c3ccc(-c4ccc(F)cn4)cc23)nn1 [Example 9, 7-(5-Fluoropyridin-2-yl)-N-((6-methylpyridazin-3-yl)methyl)-4-(tetrahydro-2H-pyran-4-yl)phthalazin-1-amine]	–
0.316 to 3.16 µM	Cc1ccc(C(C)Nc2nnc(C3CC3)c3ccc(-c4ccn(C)n4)cc23)nn1 (racemic) [Example 16, 4-Cyclopropyl-7-(1-methyl-1H-pyrazol-3-yl)-N-(1-(6-methylpyridazin-3-yl)ethyl)phthalazin-1-amine]	–
0.316 to 3.16 µM	Cc1ccc(C(C)Nc2nnc(C3CCOCC3)c3ccc(-c4ccn(C)n4)cc23)nn1 (stereo not drawn) [Example 17, 7-(1-Methylpyrazol-3-yl)-N-[1-(6-methylpyridazin-3-yl)ethyl]-4-tetrahydropyran-4-yl-phthalazin-1-amine]	–
< 0.316 µM	Cc1ccc([C@@H](C)Nc2nnc(C3CCOCC3)c3ccc(-c4ccc(F)cc4)cc23)nn1 [Example 7, (R)-7-(4-Fluorophenyl)-N-(1-(6-methylpyridazin-3-yl)ethyl)-4-(tetrahydro-2H-pyran-4-yl)phthalazin-1-amine]	–
0.316 to 3.16 µM	Cc1cnc(-c2ccc3c(CC4CCOCC4)nnc(NCc4nc(C(F)(F)F)no4)c3c2)s1 [Example 14, 7-(5-Methylthiazol-2-yl)-4-((tetrahydro-2H-pyran-4-yl)methyl)-N-((3-(trifluoromethyl)-1,2,4-oxadiazol-5-yl)methyl)phthalazin-1-amine]	–
0.316 to 3.16 µM	Cc1ccc(CNc2nnc(CC3CCOCC3)c3ccc(-c4ncc(C)s4)cc23)nn1 [Example 15, N-((6-Methylpyridazin-3-yl)methyl)-7-(5-methylthiazol-2-yl)-4-((tetrahydro-2H-pyran-4-yl)methyl)phthalazin-1-amine]	–
0.316 to 3.16 µM	Cc1ccc(CNc2nnc(CC3CCOCC3)c3ccc(-c4ccc(F)cn4)cc23)nn1 [Example 10, 7-(5-Fluoropyridin-2-yl)-N-((6-methylpyridazin-3-yl)methyl)-4-((tetrahydro-2H-pyran-4-yl)methyl)phthalazin-1-amine]	–
< 0.316 µM	Cc1ccc(CNc2nncc3ccc(-c4ncc(C)s4)cc23)nn1 [Example 13, N-[(6-Methylpyridazin-3-yl)methyl]-7-(5-methylthiazol-2-yl)phthalazin-1-amine]	–
0.316 to 3.16 µM	Cc1ccc(C(C)Nc2nnc(C3CCOCC3)c3ccc(-c4ccc(F)cn4)cc23)nn1 (single isomer, unassigned) [Example 11, 7-(5-Fluoropyridin-2-yl)-N-(1-(6-methylpyridazin-3-yl)ethyl)-4-(tetrahydro-2H-pyran-4-yl)phthalazin-1-amine]	–
0.316 to 3.16 µM	Cc1ccc(C(C)Nc2nnc(C3CC3)c3ccc(-c4ccn(C)n4)cc23)nn1 (stereo not drawn) [Example 19, 4-Cyclopropyl-7-(1-methyl-1H-pyrazol-3-yl)-N-(1-(6-methylpyridazin-3-yl)ethyl)phthalazin-1-amine]	–

Further lines, the compound ahead of its results:

SMILES	IC50 (h P2X3; [1])	other results
C[C@@H](Nc1nnc(C2CCOCC2)c2ccc(-c3ccc(F)cc3)cc12)c1cnc(C(F)(F)F)nc1 [Example 6, (R)-7-(4-Fluorophenyl)-4-(tetrahydro-2H-pyran-4-yl)-N-(1-(2-(trifluoromethyl)pyrimidin-5-yl)ethyl)phthalazin-1-amine]	0.316 to 3.16 µM	–
Cc1cnc(-c2ccc3c(C4CCOCC4)nnc(NCc4ccc(C)nn4)c3c2)nc1 [Example 1, N-((6-Methylpyridazin-3-yl)methyl)-7-(5-methylpyrimidin-2-yl)-4-(tetrahydro-2H-pyran-4-yl)phthalazin-1-amine]	0.316 to 3.16 µM	h P2X3 (pIC50 range of activity) (h P2X3; [2]): ++ (++: 6.5<pIC50 h P2X3 or h P2X2/3>5.5); IC50 (h P2X2/3): 3.16 to 31.6 µM
C[C@@H](Nc1nnc(C2CC2)c2ccc(-c3ccc(F)cc3)cc12)c1cnc(C(F)(F)F)nc1 [Example 4, (R)-4-Cyclopropyl-7-(4-fluorophenyl)-N-(1-(2-(trifluoromethyl)pyrimidin-5-yl)ethyl)phthalazin-1-amine]	0.316 to 3.16 µM	–
Cc1ccc(CNc2nncc3ccc(-c4ccc(F)cc4)cc23)nn1 [Example 3, 7-(4-Fluorophenyl)-N-((6-methylpyridazin-3-yl)methyl)phthalazin-1-amine]	< 0.316 µM	–
Cc1ccc(CNc2nccc3ccc(-c4ccc(F)cc4)cc23)nn1 [Comparative Example A, reference compound]	–	IC50 (h P2X3; in vitro assay on P2X3 as described above, read-out: activity on receptor P2X3 expressed as pIC50 (converted)): > 3.16 µM
Fc1ccc(-c2ccc3cnnc(NCC4CC4)c3c2)cc1 [Example 2, N-(Cyclopropylmethyl)-7-(4-fluorophenyl)phthalazin-1-amine]	0.316 to 3.16 µM	–
Cc1ccc([C@@H](C)Nc2nnc(C3CC3)c3ccc(-c4ccc(F)cc4)cc23)nn1 [Example 5, (R)-4-Cyclopropyl-7-(4-fluorophenyl)-N-(1-(6-methylpyridazin-3-yl)ethyl)phthalazin-1-amine]	< 0.316 µM	h P2X3 (pIC50 range of activity) (h P2X3; [2]): +++ (+++: pIC50 h P2X3 or h P2X2/3>6.5); IC50 (h P2X2/3): 0.316 to 3.16 µM

— patent US12534455B2, “Phthalazine derivatives as P2X3 inhibitors” (CHIESI FARMACEUTICI S.P.A., priority 2020, dated 2026)
